Source: patent US20240277697A1, “METHODS OF TREATING OR PREVENTING CONDITIONS ASSOCIATED WITH OPIATE WITHDRAWAL OR OPIATE RELAPSE” (Proniras Corporation, priority 2021, published 2024)
Where “and” joins values, the source holds several entries; their conditions need not be identical. Identical values can stand only once.

Assays:
Assay type in all cases: in vivo
C57BL/6J mice = test: Mouse locomotor activity (photocell activity cages)
Experimental: Male experimentally naive C57BL/6J mice were placed into individual Omnitech photocell activity cages (28×16.5 cm) 30 min after intraperitoneal (i.p.) administration of either vehicle (n=6) or tezampanel at 10 mg/kg (n=7). Interruptions of the photocell beams (two banks of eight cells each) were then recorded for the next 30 min. Data were expressed as number of photocell interruptions.
(§1) Statistical analyses. All statistical analyses were performed using Prism 7 (GraphPad Software, La Jolla, CA, USA). Data were analyzed with analysis of variance (ANOVA) followed by the Tukey test for multiple comparisons when appropriate. To determine whether treatment with tezampanel affected oxycodone withdrawal, results with its dosage groups (i.e., chronic oxycodone+tezampanel) were compared to the chronic oxycodone+vehicle treatment group. To determine if tezampanel exerted effects by itself in non-dependent mice, results with the chronic saline+10 mg/kg tezampanel group were compared to the chronic saline+vehicle group. Student's T tests were used for analyzing locomotor activity results. Statistical significance was inferred for all tests when p<0.05.

Long-Evans hooded rats = test: Oxycodone prime-induced reinstatement of extinguished oxycodone-reinforced lever pressing in rats; settings: for mean (S.E.M.) active lever presses during reinstatement test session: 0.1 mg/kg s.c. oxycodone prime, vehicle 35.42
Experimental: Tezampanel was tested for its ability to reduce prime-induced reinstatement of extinguished, oxycodone-reinforced lever pressing in rats. Tezampanel doses of 0 (vehicle), 3, and 10 mg/kg were solubilized in a sterile water vehicle and administered i.p. 30 min prior to testing.
Adult male Long-Evans hooded rats (Envigo, Indianapolis, IN) weighing 275-300 g upon delivery were used. When not in testing, rats were individually housed in standard plastic rodent cages in a temperature-controlled (22° C.), AAALAC-accredited facility in which they had ad libitum access to water. The rats were allowed ad libitum rat chow for at least one week prior to the commencement of training, after which they were maintained at 320 g by controlled feedings. The rats were maintained on a 12-h/12-h reversed light-dark cycle (0600-1800 lights off) for the duration of the experiment, and they were trained and tested during the dark segment of this cycle.
Oxycodone self-administration training sessions were conducted five days per week (M-F) for 3 h daily. […] For the duration of the infusion, the tone sounded, and the stimulus lights above both levers flashed at 3 Hz.
Self-administration training continued until these criteria had been met: 1) at least 12 self-administration sessions had occurred; 2) at least 15 oxycodone infusions had occurred during each of the last four sessions; 3) at least 125 lifetime oxycodone infusions had been obtained; 4) at least 50 active lever responses on the last three days of self-administration had been emitted; and 5) there were no increasing or decreasing trends in active lever responses during the last three sessions of self-administration, after which extinction training began. Subsequently, twelve 3-h daily (Mon-Sun) extinction sessions were conducted. During extinction sessions, the house light was illuminated, and the levers were extended, but infusions were not administered nor did any other scheduled stimulus change occur (i.e., neither Sonalert® activations nor stimulus light illuminations occurred). Rats were considered eligible for reinstatement testing provided that the mean number of active-lever presses during the last 3 sessions of extinction was lower than the mean number of active-lever presses during the first 3 sessions of extinction.
A six-day incubation period during which rats remained in their home cages followed extinction training. Oxycodone prime reinstatement testing immediately followed this incubation period (i.e., on the seventh day following the 12th day of extinction training). Conditions during prime reinstatement testing were identical to those during extinction except that either 3 or 10 mg/kg Tezampanel or its vehicle was administered 30 min prior to the reinstatement test session. […]

[1] = test system: oxycodone withdrawal in mice; test: Oxycodone-precipitated (naloxone) withdrawal in mice; settings: mice chronically administered oxycodone
Experimental: as §1
FIGS. 3A-3D show total withdrawal signs, paw tremors, jumps, and percent body weight loss, respectively. ANOVA results indicated statistically significant total number of signs [F(5,42)=33.78; p<0.0001] (FIG. 3A), paw tremors [F(5,42)=10.85; p<0.0001] (FIG. 3B), jumps [F (5, 42)=22.77; p<0.0001] (FIG. 3C) and loss of body weight [F (5, 42)=4.694; p=0.0017] (FIG. 3D).

[2] = 10 mg/kg intraperitoneal, naloxone on test day, vs oxycodone+vehicle

## O=C(O)[C@@H]1C[C@H]2C[C@@H](CCc3nn[nH]n3)CC[C@H]2CN1 [Tezampanel, (3S,4aR,6R,8aR)-6-[2-(1H-tetrazol-5-yl)ethyl]decahydroisoquinoline-3-carboxylic acid]
C57BL/6J mice; 10 mg/kg dose, mice
  observational comments on behaviour: slowed, unsteady locomotion and low activity rates
C57BL/6J mice; 10 mg/kg intraperitoneal, 30 min before, photocell interruptions over 30 min, n=7
  No. of Interruptions (±S.E.M.): 663.7 ± 87.0
C57BL/6J mice; 10 mg/kg intraperitoneal, naive mice, p<0.0001
  locomotor activity compared to vehicle-treated group: significantly reduced
Long-Evans hooded rats; 3 mg/kg i.p. 30 min prior
  mean (S.E.M.) active lever presses during reinstatement test session: 15.55 (+3.022) and 15.55 (±3.022)
Long-Evans hooded rats; 10 mg/kg i.p. 30 min prior
  mean (S.E.M.) active lever presses during reinstatement test session: 13.00 (+2.537) and 13.00 (±2.537)
Long-Evans hooded rats; 3 and 10 mg/kg i.p.
  reinstated response levels relative to vehicle-control: significantly decreased
  reinstatement relative to last extinction session: prevented oxycodone prime injections from eliciting effective reinstatement
[1]; [2]
  jumps: attenuated
  paw tremors: attenuated
  total number of withdrawal signs: attenuated
[1]; at the doses tested
  withdrawal-induced body weight loss: failed to attenuate
